The source made the active and inactive calls. The calls are words filed in the database; no cut-off is given here.
Assays:
[1] = tested on: B16; experiment: Antineoplastic activity against mouse B16 cells allografted in BDF1 mouse assessed as survival at 2 mg/kg qd for 9 days; format: functional, organism-based; parameters: dose 2 mg/kg
[2] = tested on: B16; experiment: Antineoplastic activity against mouse B16 cells allografted in BDF1 mouse at 2 mg/kg qd for 9 days relative to control; format: functional
[3] = tested on: B16; experiment: Antineoplastic activity against mouse B16 cells allografted in BDF1 mouse assessed as survival at 1 mg/kg qd for 9 days; format: functional, organism-based; parameters: dose 1 mg/kg
[4] = tested on: B16; experiment: Antineoplastic activity against mouse B16 cells allografted in BDF1 mouse at 1 mg/kg qd for 9 days relative to control; format: functional
[5] = tested on: B16; experiment: Antineoplastic activity against mouse B16 cells allografted in BDF1 mouse assessed as survival at 0.5 mg/kg qd for 9 days; format: functional, organism-based; parameters: dose 0.5 mg/kg
[6] = tested on: B16; experiment: Antineoplastic activity against mouse B16 cells allografted in BDF1 mouse at 0.5 mg/kg qd for 9 days relative to control; format: functional
[7] = tested on: B16; experiment: Antineoplastic activity against mouse B16 cells allografted in BDF1 mouse assessed as survival at 0.25 mg/kg qd for 9 days; format: functional, organism-based; parameters: dose 0.25 mg/kg
[8] = tested on: B16; experiment: Antineoplastic activity against mouse B16 cells allografted in BDF1 mouse at 0.25 mg/kg qd for 9 days relative to control; format: functional
[9] = tested on: Colon 26; experiment: Antineoplastic activity against mouse Colon 26 cells allografted in CDF1 mouse assessed as survival at 1.08 mg/kg qd for 9 days; format: functional, organism-based; parameters: dose 1.08 mg/kg
[10] = tested on: Colon 26; experiment: Antineoplastic activity against mouse Colon 26 cells allografted in CDF1 mouse at 1.08 mg/kg qd for 9 days relative to control; format: functional
[11] = tested on: Colon 26; experiment: Antineoplastic activity against mouse Colon 26 cells allografted in CDF1 mouse assessed as survival at 0.69 mg/kg qd for 9 days; format: functional, organism-based; parameters: dose 0.69 mg/kg
[12] = tested on: Colon 26; experiment: Antineoplastic activity against mouse Colon 26 cells allografted in CDF1 mouse at 0.69 mg/kg qd for 9 days relative to control; format: functional
[13] = tested on: Colon 26; experiment: Antineoplastic activity against mouse Colon 26 cells allografted in CDF1 mouse assessed as survival at 0.39 mg/kg qd for 9 days; format: functional, organism-based; parameters: dose 0.39 mg/kg
[14] = tested on: Colon 26; experiment: Antineoplastic activity against mouse Colon 26 cells allografted in CDF1 mouse at 0.39 mg/kg qd for 9 days relative to control; format: functional
[15] = tested on: L1210; experiment: Antineoplastic activity against mouse L1210 cells allografted in CDF1 mouse assessed as survival at 18 mg/kg qd for 9 days; format: functional, organism-based; parameters: dose 18 mg/kg
[16] = tested on: L1210; experiment: Antineoplastic activity against mouse L1210 cells allografted in CDF1 mouse at 18 mg/kg qd for 9 days relative to control; format: functional
[17] = tested on: L1210; experiment: Antineoplastic activity against mouse L1210 cells allografted in CDF1 mouse assessed as survival at 10.8 mg/kg qd for 9 days; format: functional, organism-based; parameters: dose 10.8 mg/kg
[18] = tested on: L1210; experiment: Antineoplastic activity against mouse L1210 cells allografted in CDF1 mouse at 10.8 mg/kg qd for 9 days relative to control; format: functional
[19] = tested on: L1210; experiment: Antineoplastic activity against mouse L1210 cells allografted in CDF1 mouse assessed as survival at 4 mg/kg qd for 9 days; format: functional, organism-based; parameters: dose 4 mg/kg
[20] = tested on: L1210; experiment: Antineoplastic activity against mouse L1210 cells allografted in CDF1 mouse at 4 mg/kg qd for 9 days relative to control; format: functional
[21] = tested on: L1210; experiment: Antineoplastic activity against mouse L1210 cells allografted in CDF1 mouse assessed as survival at 2 mg/kg qd for 9 days; format: functional, organism-based; parameters: dose 2 mg/kg
[22] = tested on: L1210; experiment: Antineoplastic activity against mouse L1210 cells allografted in CDF1 mouse at 2 mg/kg qd for 9 days relative to control; format: functional
[23] = tested on: L1210; experiment: Antineoplastic activity against mouse L1210 cells allografted in CDF1 mouse assessed as survival at 1 mg/kg qd for 9 days; format: functional, organism-based; parameters: dose 1 mg/kg
[24] = tested on: L1210; experiment: Antineoplastic activity against mouse L1210 cells allografted in CDF1 mouse at 1 mg/kg qd for 9 days relative to control; format: functional
[25] = tested on: P388; experiment: Antineoplastic activity against mouse P388 cells allografted in CDF1 mouse assessed as survival at 2 mg/kg qd for 9 days; format: functional, organism-based; parameters: dose 2 mg/kg
[26] = tested on: P388; experiment: Antineoplastic activity against mouse P388 cells allografted in CDF1 mouse at 2 mg/kg qd for 9 days relative to control; format: functional
[27] = tested on: P388; experiment: Antineoplastic activity against mouse P388 cells allografted in CDF1 mouse assessed as survival at 1 mg/kg qd for 9 days; format: functional, organism-based; parameters: dose 1 mg/kg
[28] = tested on: P388; experiment: Antineoplastic activity against mouse P388 cells allografted in CDF1 mouse at 1 mg/kg qd for 9 days relative to control; format: functional
[29] = tested on: P388; experiment: Antineoplastic activity against mouse P388 cells allografted in CDF1 mouse assessed as survival at 0.5 mg/kg qd for 9 days; format: functional, organism-based; parameters: dose 0.5 mg/kg
[30] = tested on: P388; experiment: Antineoplastic activity against mouse P388 cells allografted in CDF1 mouse at 0.5 mg/kg qd for 9 days relative to control; format: functional
[31] = tested on: P388; experiment: Antineoplastic activity against mouse P388 cells allografted in CDF1 mouse assessed as survival at 0.25 mg/kg qd for 9 days; format: functional, organism-based; parameters: dose 0.25 mg/kg
[32] = tested on: P388; experiment: Antineoplastic activity against mouse P388 cells allografted in CDF1 mouse at 0.25 mg/kg qd for 9 days relative to control; format: functional
[33] = tested on: P388; experiment: Antineoplastic activity against mouse P388 cells allografted in CDF1 mouse assessed as survival at 0.12 mg/kg qd for 9 days; format: functional, organism-based; parameters: dose 0.12 mg/kg
[34] = tested on: P388; experiment: Antineoplastic activity against mouse P388 cells allografted in CDF1 mouse at 0.12 mg/kg qd for 9 days relative to control; format: functional
[35] = tested on: P388; experiment: Antineoplastic activity against mouse P388 cells allografted in CDF1 mouse assessed as survival at 0.06 mg/kg qd for 9 days; format: functional, organism-based; parameters: dose 0.06 mg/kg
[36] = tested on: P388; experiment: Antineoplastic activity against mouse P388 cells allografted in CDF1 mouse at 0.06 mg/kg qd for 9 days relative to control; format: functional

## O=C1c2c(O)ccc(O)c2C(=O)c2c(NCCNCCO)ccc(NCCNCCO)c21 [MITOXANTRONE]
[1]
  Activity: Active
[2]
  T/C: 231%
[3]
  Activity: Active
[4]
  T/C: 342%
[5]
  Activity: Active
[6]
  T/C: 299%
[7]
  Activity: Active
[8]
  T/C: 186%
[9]
  Activity: Active
[10]
  T/C: 353%
[11]
  Activity: Active
[12]
  T/C: 305%
[13]
  Activity: Active
[14]
  T/C: 259%
[15]
  Activity: Active
[16]
  T/C: 308%
[17]
  Activity: Active
[18]
  T/C: 261%
[19]
  Activity: Active
[20]
  T/C: 256%
[21]
  Activity: Active
[22]
  T/C: 198%
[23]
  Activity: Active
[24]
  T/C: 163%
[25]
  Activity: Active
[26]
  T/C: 230%
[27]
  Activity: Active
[28]
  T/C: 381%
[29]
  Activity: Active
[30]
  T/C: 305%
[31]
  Activity: Active
[32]
  T/C: 224%
[33]
  Activity: Active
[34]
  T/C: 210%
[35]
  Activity: Active
[36]
  T/C: 192%
